This is an account of results in US11053259B2, “Crystal of cephalosporin intermediate 7α-methoxy cephalothin and method for preparing same” (QILU ANTIBIOTICS PHARMACEUTICAL CO. LTD., priority 2017, dated 2021).

Counter-ions that a name gives are not always drawn.

A short description of series [1]: hygroscopicity and storage stability of the cyclohexylamine salt (statement on existing technology). Type of series: physicochemical.
A short description of series [2]: 6-month accelerated comparative study on stability. The class given is physicochemical. To be noted: for Appearance / Content / Moisture: 25° C. and RH of 60%.

Turning to `CO[C@@]1(NC(=O)Cc2cccs2)C(=O)N2C(C(=O)O)=C(COC(C)=O)CS[C@@H]21` [listing 1 of 2 here], the storage stability entry in series [1] is given as “poor storage stability”.
As for `CO[C@@]1(NC(=O)Cc2cccs2)C(=O)N2C(C(=O)O)=C(COC(C)=O)CS[C@@H]21` [Crystal of 7α-Methoxy Cephalothin, (6R, 7S)-3-acetyloxymethyl-7-methoxy-8-oxo-7-[2-(2-thienyl)acetamido]-5-thia-1-nitrobicyclo [4.2.0] oct-2-ene-2-carboxylic acid], the Appearance entry in series [2] (Month 0), in series [2] (Month 1), in series [2] (Month 2), in series [2] (Month 3) and in series [2] (Month 6) was “Off-white” in each case. Also, the Content in series [2] (Month 0) came to 98.2%; in series [2] (Month 1) it was 98.2%; in series [2] (Month 2) it was 98.1%; in series [2] (Month 3), 98.1%; in series [2] (Month 6), 97.9%. Besides, the Moisture is 0.26% in series [2] (Month 0); 0.27% in series [2] (Month 1); 0.27% in series [2] (Month 2); 0.29% in series [2] (Month 3); 0.28% in series [2] (Month 6).
Take `CO[C@@]1(NC(=O)Cc2cccs2)C(=O)N2C(C(=O)O)=C(COC(C)=O)CS[C@@H]21` [listing 2 of 2 here]: the “stability of appearance, hygroscopicity and content (overall result in words)” value in series [2] (6-month accelerated testing) is “better purity and quality stability”.
As to `CO[C@@]1(NC(=O)Cc2cccs2)C(=O)N2C(C(=O)O)=C(COC(C)=O)CS[C@@H]21` [Cyclohexylamine Salt of 7α-Methoxy Cephalothin], the Appearance result was “Off-white” in series [2] (Month 0); “Light” in series [2] (Month 1); “Yellow” in series [2] (Month 2); “Yellow” in series [2] (Month 3); “Earthy” in series [2] (Month 6). The Content in series [2] (Month 0) is 78.4%; in series [2] (Month 1), 77.5%; in series [2] (Month 2), 76.3%; in series [2] (Month 3) it was 75.1%; in series [2] (Month 6) it was 72.4%. Further, the Moisture in series [2] (Month 0) came to 0.13%; in series [2] (Month 1), 0.87%; in series [2] (Month 2) it was 1.56%; in series [2] (Month 3) it was 1.84%; in series [2] (Month 6) it was 2.55%. Further, the hygroscopicity entry in series [1] is recorded as “strong hygroscopicity”.
